# Assay results: ChEMBL document CHEMBL4393707, “Synthesis and evaluation of new quinazolin-4(3H)-one derivatives as potent antibacterial agents against multidrug resistant Staphylococcus aureus and Mycobacterium tuberculosis” (Eur J Med Chem, 2019)
# Calls of active or inactive are those of the source. The rule behind the calls is not given here.
# Assays:
# Staphylococcus aureus [1] = experiment: Synergistic antibacterial activity against Staphylococcus aureus ATCC 29213 incubated for 24 hrs in presence of linezolid by checkerboard titration assay; type: functional; conditions: ATCC 29213, 24 h
# Staphylococcus aureus [2] = experiment: Antibacterial activity against vancomycin-resistant Staphylococcus aureus VRS12 incubated for 16 to 18 hrs by broth microdilution assay; type: functional
# Staphylococcus aureus [3] = experiment: Antibacterial activity against methicillin-resistant Staphylococcus aureus NR10194 incubated for 16 to 18 hrs by broth microdilution assay; type: functional
# Staphylococcus aureus [4] = experiment: Antibacterial activity against methicillin-resistant Staphylococcus aureus NR10193 incubated for 16 to 18 hrs by broth microdilution assay; type: functional
# Staphylococcus aureus [5] = experiment: Antibacterial activity against methicillin-resistant Staphylococcus aureus NR10192 incubated for 16 to 18 hrs by broth microdilution assay; type: functional
# Staphylococcus aureus [6] = experiment: Antibacterial activity against methicillin-resistant Staphylococcus aureus NR10129 incubated for 16 to 18 hrs by broth microdilution assay; type: functional
# Staphylococcus aureus [7] = experiment: Antibacterial activity against Staphylococcus aureus ATCC 29213 incubated for 16 to 18 hrs by broth microdilution assay; type: functional
# Staphylococcus aureus [8] = experiment: Antibacterial activity against methicillin-susceptible Staphylococcus aureus ATCC 29213 incubated for 16 to 18 hrs by broth microdilution assay; type: functional
# Staphylococcus aureus [9] = experiment: Synergistic antibacterial activity against Staphylococcus aureus ATCC 29213 incubated for 24 hrs in presence of meropenem by checkerboard titration assay; type: functional; conditions: ATCC 29213, 24 h
# Staphylococcus aureus [10] = experiment: Synergistic antibacterial activity against Staphylococcus aureus ATCC 29213 incubated for 24 hrs in presence of rifampicin by checkerboard titration assay; type: functional; conditions: ATCC 29213, 24 h
# Staphylococcus aureus [11] = experiment: Potentiation of ceftazidime-induced antibacterial activity against Staphylococcus aureus ATCC 29213 assessed as ceftazidime MIC incubated for 24 hrs by checkerboard titration assay (reference value: […] ug/ml); type: functional; conditions: ATCC 29213, 24 h
# Staphylococcus aureus [12] = experiment: Potentiation of daptomycin-induced antibacterial activity against Staphylococcus aureus ATCC 29213 assessed as daptomycin MIC incubated for 24 hrs by checkerboard titration assay (reference value: 0.5 ug/ml); type: functional; conditions: ATCC 29213, 24 h
# Staphylococcus aureus [13] = experiment: Potentiation of gentamycin-induced antibacterial activity against Staphylococcus aureus ATCC 29213 assessed as gentamycin MIC incubated for 24 hrs by checkerboard titration assay (reference value: 0.25 ug/ml); type: functional; conditions: ATCC 29213, 24 h
# Staphylococcus aureus [14] = experiment: Potentiation of levofloxacin-induced antibacterial activity against Staphylococcus aureus ATCC 29213 assessed as levofloxacin MIC incubated for 24 hrs by checkerboard titration assay (reference value: 0.25 ug/ml); type: functional; conditions: ATCC 29213, 24 h
# Staphylococcus aureus [15] = experiment: Potentiation of minocycline-induced antibacterial activity against Staphylococcus aureus ATCC 29213 assessed as minocycline MIC incubated for 24 hrs by checkerboard titration assay (reference value: 0.125 ug/ml); type: functional; conditions: ATCC 29213, 24 h
# Staphylococcus aureus [16] = experiment: Potentiation of vancomycin-induced antibacterial activity against Staphylococcus aureus ATCC 29213 assessed as vancomycin MIC incubated for 24 hrs by checkerboard titration assay (reference value: 1 ug/ml); type: functional; conditions: ATCC 29213, 24 h
# Staphylococcus aureus [17] = experiment: Synergistic antibacterial activity against Staphylococcus aureus ATCC 29213 assessed as FIC incubated for 24 hrs in presence of daptomycin by checkerboard titration assay; type: functional
# Staphylococcus aureus [18] = experiment: Synergistic antibacterial activity against Staphylococcus aureus ATCC 29213 assessed as FIC incubated for 24 hrs in presence of minocycline by checkerboard titration assay; type: functional
# Staphylococcus aureus [19] = experiment: Synergistic antibacterial activity against Staphylococcus aureus ATCC 29213 assessed as FIC incubated for 24 hrs in presence of rifampicin by checkerboard titration assay; type: functional
# Staphylococcus aureus [20] = experiment: Synergistic antibacterial activity against Staphylococcus aureus ATCC 29213 assessed as FIC incubated for 24 hrs in presence of vancomycin by checkerboard titration assay; type: functional
# Staphylococcus aureus [21] = experiment: Potentiation of ceftazidime-induced antibacterial activity against Staphylococcus aureus ATCC 29213 assessed as FIC incubated for 24 hrs by checkerboard titration assay; type: functional
# Staphylococcus aureus [22] = experiment: Potentiation of daptomycin-induced antibacterial activity against Staphylococcus aureus ATCC 29213 assessed as FIC incubated for 24 hrs by checkerboard titration assay; type: functional
# Staphylococcus aureus [23] = experiment: Potentiation of levofloxacin-induced antibacterial activity against Staphylococcus aureus ATCC 29213 assessed as FIC incubated for 24 hrs by checkerboard titration assay; type: functional
# Staphylococcus aureus [24] = experiment: Potentiation of vancomycin-induced antibacterial activity against Staphylococcus aureus ATCC 29213 assessed as FIC incubated for 24 hrs by checkerboard titration assay; type: functional
# Staphylococcus aureus [25] = experiment: Synergistic antibacterial activity against Staphylococcus aureus ATCC 29213 assessed as sum of FIC for test compound in presence of levofloxacin and FIC for levofloxacin in presence of test compound incubated for 24 hrs by checkerboard titration assay; type: functional
# Staphylococcus aureus [26] = experiment: Synergistic antibacterial activity against Staphylococcus aureus ATCC 29213 assessed as sum of FIC for test compound in presence of meropenem and FIC for meropenem in presence of test compound incubated for 24 hrs by checkerboard titration assay; type: functional
# Staphylococcus aureus [27] = experiment: Antibacterial activity against Staphylococcus aureus ATCC 29213 assessed as time required to increase 1 log10 CFU at MIC incubated for 1 hr followed by compound washout and measured at 1 hr intervals (reference value: 2 hrs); type: functional
# Staphylococcus aureus [28] = experiment: Antibacterial activity against Staphylococcus aureus ATCC 29213 assessed as time required to increase 1 log10 CFU at 10 times MIC incubated for 1 hr followed by compound washout and measured at 1 hr intervals (reference value: 2 hrs); type: functional
# Staphylococcus aureus [29] = experiment: Antibacterial activity against Staphylococcus aureus ATCC 29213 assessed as post antibiotic effect time at MIC incubated for 1 hr followed by compound washout and measured at 1 hr intervals (reference value: 0 hrs); type: functional
# Staphylococcus aureus [30] = experiment: Antibacterial activity against Staphylococcus aureus ATCC 29213 assessed as post antibiotic effect time at 10 times MIC incubated for 1 hr followed by compound washout and measured at 1 hr intervals (reference value: 0 hrs); type: functional
# Staphylococcus aureus [31] = experiment: Antibiofilm activity against Staphylococcus aureus ATCC 29213 at 10 times MIC incubated 48 hrs by crystal violet staining based assay relative to control; type: functional
# Staphylococcus aureus [32] = experiment: Antimicrobial activity against Staphylococcus aureus ATCC 29213 infected in BALB/c mouse model of neutropenic thigh infection assessed reduction in bacterial levels in thigh at 25 mg/kg, ip administered 3 hrs post infection twice at interval of 3 hrs between injections and measured after 24 hrs; type: functional, organism-based
# Staphylococcus aureus [33] = experiment: Antimicrobial activity against Staphylococcus aureus ATCC 29213 infected in BALB/c mouse model of neutropenic thigh infection assessed reduction in bacterial levels in thigh at 50 mg/kg, ip administered 3 hrs post infection twice at interval of 3 hrs between injections and measured after 24 hrs; type: functional, organism-based
# Staphylococcus aureus [34] = experiment: Antimicrobial activity against Staphylococcus aureus ATCC 29213 infected in ip dosed BALB/c mouse model of neutropenic thigh infection assessed reduction in bacterial levels administered 3 hrs post infection twice at interval of 3 hrs between injections and measured after 24 hrs; type: functional, organism-based
# [35] = Selectivity index, ratio of CC50 for African green monkey Vero cells to MIC for Mycobacterium tuberculosis H37Rv; type: toxicity; conditions: read-out: Selectivity Index
structure (smiles),measurement,setting,value
N#Cc1ccc(/C=C/c2nc3ccccc3c(=O)n2-c2ccc(C(=O)O)c(O)c2)cc1,MIC,Staphylococcus aureus [1],1.9 ng/mL
same,MIC,Staphylococcus aureus [2],125 ng/mL
same,MIC,Staphylococcus aureus [3],< 125 ng/mL
same,MIC,Staphylococcus aureus [4],< 125 ng/mL
same,MIC,Staphylococcus aureus [5],< 125 ng/mL
same,MIC,Staphylococcus aureus [6],< 125 ng/mL
same,MIC,Staphylococcus aureus [7],30 ng/mL
same,MIC,Staphylococcus aureus [8],< 125 ng/mL
same,MIC,Staphylococcus aureus [9],1.9 ng/mL
same,MIC,Staphylococcus aureus [10],1.9 ng/mL
same,MIC,Staphylococcus aureus [11],31.2 ng/mL
same,MIC,Staphylococcus aureus [12],1.9 ng/mL
same,MIC,Staphylococcus aureus [13],1.9 ng/mL
same,MIC,Staphylococcus aureus [14],0.9 ng/mL
same,MIC,Staphylococcus aureus [15],0.9 ng/mL
same,MIC,Staphylococcus aureus [16],3.9 ng/mL
same,FIC,Staphylococcus aureus [17],0.032
same,FIC,Staphylococcus aureus [18],0.032
same,FIC,Staphylococcus aureus [19],0.032
same,FIC,Staphylococcus aureus [20],0.032
same,FIC,Staphylococcus aureus [21],0.0019
same,FIC,Staphylococcus aureus [22],0.003
same,FIC,Staphylococcus aureus [23],0.003
same,FIC,Staphylococcus aureus [24],0.003
same,FIC,Staphylococcus aureus [25],0.036
same,FIC,Staphylococcus aureus [26],0.036
same,Time,Staphylococcus aureus [27],2 h
same,Time,Staphylococcus aureus [28],4 h
same,Time,Staphylococcus aureus [29],0 h
same,Time,Staphylococcus aureus [30],2 h
same,Activity,Staphylococcus aureus [31],14.1%
same,Activity,Staphylococcus aureus [32],Active
same,Activity,Staphylococcus aureus [33],Active
same,Activity,Staphylococcus aureus [34],Dose-dependent effect
N#Cc1ccc(/C=C/c2nc3cccc(F)c3c(=O)n2-c2cccc(O)c2)cc1,MIC,Staphylococcus aureus [1],7.8 ng/mL
same,MIC,Staphylococcus aureus [2],125 ng/mL
same,MIC,Staphylococcus aureus [3],125 to 250 ng/mL
same,MIC,Staphylococcus aureus [4],< 125 ng/mL
same,MIC,Staphylococcus aureus [5],< 125 ng/mL
same,MIC,Staphylococcus aureus [6],< 125 ng/mL
same,MIC,Staphylococcus aureus [7],62.5 ng/mL
same,MIC,Staphylococcus aureus [8],< 125 ng/mL
same,MIC,Staphylococcus aureus [9],7.8 ng/mL
same,MIC,Staphylococcus aureus [10],7.8 ng/mL
same,MIC,Staphylococcus aureus [11],31.2 ng/mL
same,MIC,Staphylococcus aureus [12],1.9 ng/mL
same,MIC,Staphylococcus aureus [13],1.9 ng/mL
same,MIC,Staphylococcus aureus [14],0.9 ng/mL
same,MIC,Staphylococcus aureus [15],0.9 ng/mL
same,MIC,Staphylococcus aureus [16],3.9 ng/mL
same,FIC,Staphylococcus aureus [17],0.0625
same,FIC,Staphylococcus aureus [18],0.0625
same,FIC,Staphylococcus aureus [19],0.0625
same,FIC,Staphylococcus aureus [20],0.0625
same,FIC,Staphylococcus aureus [21],0.0039
same,FIC,Staphylococcus aureus [22],0.0019
same,FIC,Staphylococcus aureus [23],0.0036
same,FIC,Staphylococcus aureus [24],0.0039
same,FIC,Staphylococcus aureus [25],0.0661
same,FIC,Staphylococcus aureus [26],0.0643
same,selectivity ratio,[35],> 12.5
